Legend:
[1] = β cryptoxanthin stabilizing test, Example 1B (water from paste, varied β cryptoxanthin concentration, stored at 45° C.); assay type: physicochemical
Method: The prepared paste derived from Citrus unshiu and water were mixed. Thus, β cryptoxanthin-containing waters were prepared. In the mixing, concentrations of the β cryptoxanthin were set to predetermined parts by mass with respect to 100 parts by mass of a combination of the water and components contained in the water. The predetermined parts by mass were 0.0031, 0.0044, 0.0062, 0.0086, 0.0176, and 0.0244 parts by mass. Thus, six types of β cryptoxanthin-containing waters each having a different concentration of the β cryptoxanthin were prepared. Each of the β cryptoxanthin-containing waters was sufficiently stirred. Thereafter 90 g of the resultant β cryptoxanthin-containing water was filled in an aluminum pouch, which was then sterilized under the condition at 85° C. for 30 minutes. As a comparative example, two types of β cryptoxanthin-containing waters were prepared in the same manner as described above except that the concentrations of the β cryptoxanthin were set to 0.0011 and 0.0016 parts by mass.
Six types of the β cryptoxanthin-containing waters of the example and two types of β cryptoxanthin-containing waters of the comparative example were stored at 45° C. for one month. Sampling was conducted on a storage start date and after one month from the storage start date. The respective amounts of β cryptoxanthin in samples were measured by HPLC as shown below. Then, assuming that the amount of β cryptoxanthin on the storage start date was 100%, residual ratios of β cryptoxanthin were determined.
The samples were treated at 70° C. for 30 minutes under alkaline conditions before being subjected to HPLC. By this treatment, β cryptoxanthin in the samples was saponified and was converted to a free form. After the treatment, the samples were subjected to a liquid-liquid extraction and were then concentrated. Concentrated samples thus obtained were used as samples for HPLC.
In the measurements of the amounts of β cryptoxanthin by HPLC, a HPLC system to which a column (J′sphere ODS-M80 (product name) with 250×4.6 mm I.D, produced by YMC Co., Ltd.) had been connected was used, and absorbances at 455 nm were measured by a UV detector (L-4200H (product name), produced by Hitachi Ltd.). Conditions of the column were as follows. • Mobile phase: acetonitrile/tetrahydrofuran (volume ratio: 95/5) containing 0.1% acetic acid and 50 ppm of α-tocopherol • Flow rate: 1.0 mL/minute • Column temperature: 55° C.

[2] = Storage stability at 20° C. and 25° C. calculated by Arrhenius equation, Example 4A; assay type: physicochemical; details: for possible storage period in the stable state: β cryptoxanthin-containing waters of Example 1A, 2A, and 3A, from storage at 40° C. for 2 months
Method: With respect to each of the β cryptoxanthin-containing waters prepared in Examples 1A, 2A, and 3A, storage stability at 20° C. and 25° C. was determined.
The storage stability was calculated by the following method with reference to the publication below. Conditions were described in the publication, hereby incorporated herein by reference. • Sumie Yoshioka (1995), “Iyakuhin no Anzensei—yoriyoi Kaihatsu to Hyoka notameno Kiso kara Jissai made—(Drug safety—principles and practices for improving development and evaluation—), Nankodo Co., Ltd.
Specifically, a graph of FIG. 185 on page 95 of the publication was cited. FIG. 1 is an Arrhenius plot of degradation of thiamine hydrochloride in a vitamin complex liquid agent, the Y axis indicates log Kobs (day^−1), and the X axis indicates 1/T (K^1). The stable periods were calculated based on the activation energy for degradation of thiamine hydrochloride in the vitamin complex liquid agent, shown in the graph.
In FIG. 1, the Y axis is indicated by not ln, but log. Therefore log Kobs was converted into ln k.
Then, −Ea/R and ln A were calculated from the ln k and 1/T (K^−1) on the X axis of FIG. 1 based on the Arrhenius equation represented by the formula (1) below.

[3] = β cryptoxanthin stabilizing test, Example 2A (water from Citrus unshiu powder with additive L-ascorbic acid, stored at 40° C.); assay type: physicochemical; details: 0.0022 parts by mass β cryptoxanthin (powder) in water
Method: The prepared powder derived from Citrus unshiu and water were mixed. Thus, a mixed solution was prepared. The mixing was conducted so that a mass ratio between β cryptoxanthin contained in the powder and the mixed water became 1 mg:50 g (0.0022 parts by mass of β cryptoxanthin with respect to 100 parts by mass of finally obtained β cryptoxanthin-containing water). Vitamin C (L-ascorbic acid) was added to the mixed solution, which was then mixed by stirring. Thus, β cryptoxanthin-containing waters were prepared. The total amounts of L-ascorbic acid in the respective β cryptoxanthin-containing waters were set to 0.005, 0.01, 0.02, 0.1, and 0.2 parts by mass with respect to 100 parts by mass of entire β cryptoxanthin-containing water by adding vitamin C. 50 g of five types of the β cryptoxanthin-containing waters were filled in the respective brown bottles. Thereafter, the brown bottles were subjected to a heat sterilization treatment under the condition at 90° C. for 30 minutes, which were then stored at 40° C. Sampling was conducted on a storage start date and after two months from the same. The respective amounts of β cryptoxanthin in samples were measured in the same manner as in Example 1A. Then, assuming that the amount of β cryptoxanthin on the storage start date was 100%, residual ratios of β cryptoxanthin were determined.

[4] = compound of structural formula (1); stated as known; cited from earlier work
[5] = Storage stability at 20° C. and 25° C. calculated by Arrhenius equation, Example 4B; assay type: physicochemical; details: for possible storage period in a stable state: β cryptoxanthin-containing waters of Examples 1B, 2B, and 3B
Method: With respect to the β cryptoxanthin-containing waters prepared in Examples 1B, 2B, and 3B, storage stability at 20° C. and 25° C. was determined. Determination of the storage stability was performed in the same manner as in Example 4A.

Structure (SMILES): CC1=C(/C=C/C(C)=C/C=C/C(C)=C/C=C/C=C(C)/C=C/C=C(C)/C=C/C2=C(C)C[C@@H](O)CC2(C)C)C(C)(C)CCC1 [β cryptoxanthin]
- Residual ratio of β cryptoxanthin Storage for one month (%) ([1]; Comparative Example, β cryptoxanthin 0.0011 parts by mass (paste) in water): 52.5%
- Residual ratio of β cryptoxanthin Storage for one month (%) ([1]; Comparative Example, β cryptoxanthin 0.0016 parts by mass (paste) in water): 59.0%
- Residual ratio of β cryptoxanthin Storage for one month (%) ([1]; Example, β cryptoxanthin 0.0031 parts by mass (paste) in water): 84.8%
- Residual ratio of β cryptoxanthin Storage for one month (%) ([1]; Example, β cryptoxanthin 0.0044 parts by mass (paste) in water): 87.8%
- Residual ratio of β cryptoxanthin Storage for one month (%) ([1]; Example, β cryptoxanthin 0.0062 parts by mass (paste) in water): 97.0%
- Residual ratio of β cryptoxanthin Storage for one month (%) ([1]; Example, β cryptoxanthin 0.0086 parts by mass (paste) in water): 95.3%
- Residual ratio of β cryptoxanthin Storage for one month (%) ([1]; Example, β cryptoxanthin 0.0176 parts by mass (paste) in water): 93.2%
- Residual ratio of β cryptoxanthin Storage for one month (%) ([1]; Example, β cryptoxanthin 0.0244 parts by mass (paste) in water): 105.9%
- storage in a stable state at normal temperature ([2]; Example 4A, normal temperature (20° C. to 25° C.)): two years or more
- possible storage period in the stable state ([2]; 20° C.): about 34 months
- possible storage period in the stable state ([2]; 25° C.): about 16.2 months
- Residual ratio of β cryptoxanthin Storage for two months (%) ([3]; additive L-ascorbic acid 0.005 parts by mass): 62.5%
- Residual ratio of β cryptoxanthin Storage for two months (%) ([3]; additive L-ascorbic acid 0.01 parts by mass): 75.5%
- Residual ratio of β cryptoxanthin Storage for two months (%) ([3]; additive L-ascorbic acid 0.02 parts by mass): 92.0%
- Residual ratio of β cryptoxanthin Storage for two months (%) ([3]; additive L-ascorbic acid 0.1 parts by mass): 100%
- Residual ratio of β cryptoxanthin Storage for two months (%) ([3]; additive L-ascorbic acid 0.2 parts by mass): 31.9%
- solubility in water [4]: poorly soluble in water
- storage in a stable state at normal temperature ([5]; Example 4B, normal temperature (20° C. to 25° C.)): two years or more
- possible storage period in a stable state ([5]; 20° C.): about 32.7 months
- possible storage period in a stable state ([5]; 25° C.): about 15.6 months
